# According to patent publication US12649755B2, “Plasmin inhibitor, preparation method therefor and application thereof” (SCINNOHUB PHARMACEUTICAL CO., LTD, priority 2020, dated 2026):
# Where two headings read alike, the source gives them in different places.
# Legend:
# [1] = test system: plasma clots (human plasma, tPA-induced lysis); assay: Plasma clot lysis assay; type: biochemical; conditions: for IC50: human plasma, tPA, clot lysis time by absorbance at 405 nm, read-out: IC50 value for inhibition of plasma clot lysis
# From the text: To determine the inhibitory effect of the compounds of the invention on the degradation of plasma clots.
# 3. […] The time corresponding to the median of the absorption value in the descending section-the time corresponding to the median of the absorption value in the ascending section is the plasma clot degradation time (Clot lysis time).
# Taking the log value of the compound concentration as the X-axis, and the percentage inhibition rate as the Y-axis, and dose-response curves were fitted with the software GraphPad Prism 5 by using log (inhibitor) vs. Response-Variable slope to derive IC50 values of compounds inhibiting the degradation of plasma clots. Y=min+(max−min)/(1+10^((LogIC50−X)×Hillslope). Formula: […]
# [2] = Rat PK assay, intravenous administration; type: in vivo; conditions: male, Sprague-Dawley, plasma, SD rats, 1 mg/kg single dose
# Description: The pharmacokinetic profile of the compounds of the invention in rats was studied by measuring the plasma drug concentration after intravenous administration.
# Male Sprague-Dawley rats of SPF grade, 3 rats each group, were obtained from: Shanghai Sippe-Bk Lab Animal Co., Ltd.
# The compound was weighed and dissolved in normal saline to prepare a 0.2 mg/mL solution for intravenous administration.
# The day before the experiment, the rats were fasted overnight and fed 4 hours after administration.
# On the day of the experiment, the rats were administered according to the scheme in the table below. At each time point after administration, approximately 200 μL of blood was collected from the jugular vein and placed in heparin sodium anticoagulation tubes. Blood samples were placed on ice after collection, and the plasma was separated by centrifugation within 1 hour (centrifugation conditions: 6800 g, 6 minutes, 2-8° C.). The separated plasma was stored in a refrigerator at −80° C. for biological sample analysis.
# The compound concentration in rat plasma was determined by the following method: • Instruments and equipment: LC-MS/MS-19 (TQ5500, AB SCIEX, USA). • Internal standard: warfarin. • Chromatographic column: ACQUITY UPLC BEH C18, model 1.7 um 2.1*50 mm, purchased from Shenzhen Novah Chemical Technology Co., Ltd.; • Flow rate: 0.60 ml/min. • Column temperature: 40° C. • Mobile phase A: 0.1% formic acid in water. • Mobile phase B: 0.1% formic acid in acetonitrile.
# Take 30 μL of the plasma sample prepared from item “3”, add 300 μL MeOH containing 100 ng/ml of internal standard to precipitate protein. The mixture was vortexed for 1 minute and centrifuged at 18000 g for 7 minutes. The supernatant was transferred to a 96-well plate. Inject 4 μL of supernatant into LC-MS/MS for analysis.
# The concentration of the compound in rat plasma was determined by the above-mentioned LC-MS/MS analysis method, and pharmacokinetic parameters were calculated by using Phoenix WinNonlin7.0 software according to blood concentration data of different time points.
# [3] = test system: human whole blood under hyperfibrinolytic state induced by rtPA; assay: Human whole blood thromboelastography (TEG) assay; type: biochemical; conditions: for CLT doubling: clot lysis time at the doubling concentration
# Description: The antifibrinolytic effect of the compounds of the invention in the human whole blood under hyperfibrinolytic state induced by rtPA (recombinant tissue […]) was determined using the Thromboelastogram (TEG).
# • Source of human blood: All human blood used in the experiments was provided by healthy volunteers. 3. Experimental Procedure • (1) Preparation of test substance solution: Accurately weigh the test substance, and use normal saline to prepare the test substance to the following concentrations (100×test concentration): • Tranexamic acid (μM): 3000, 1000, 300, 100, 30, 10, 0; • Example 6 (μM): 1000, 300, 100, 30, 10, 3, 0. • (2) Preparation of rt-PA (alteplase for injection): the active dry powder of rtPA was formulated to 25 μg/mL using water for injection in the rtPA package. • (3) Reaction system:
# Mix 392 μL of sodium citrate anticoagulated whole blood with 4 μL rtPA and 4 μL test substance, reacted at room temperature, and TEG curve was detected for 2 hours to obtain the time parameter of CLT (clot lysis time). • (4) Result calculations
# Taking the log value of the compound concentration as the X-axis and the CLT value as the Y-axis, and dose-response curves were fitted using log (inhibitor) vs. Response-Variable slope (GraphPad Prism 8 software).
# The concentration of compound corresponding to doubling the CLT time was calculated.
# [4] = test system: fibrinolysis; conditions: relative to EACA; cited from earlier work
# [5] = relative inhibition of plasma clot lysis vs tranexamic acid in vitro, plasma clot lysis
smiles,measurement,setting,value
"Cl.O=P(O)(O)c1ccc2c(n1)CCNC2 [Example 1, (5,6,7,8-tetrahydro-1,6-naphthyridin-2-yl)phosphonic Acid Hydrochloride]",IC50,[1],900 nM
same,IC50 ratio (IC50 Examples/IC50 Tranexamic acid),[1]; [5],0.19
same,AUC,[2],14000 ng·h/mL
same,Cmax,[2],10200 ng/mL
same,clearance,[2],1.14 mL/min/kg
same,half-life,[2],1.96 h
"Cl.O=P(O)(O)c1nc2c(cc1F)CNCC2 [Example 2, (3-fluoro-5,6,7,8-tetrahydro-1,6-naphthyridin-2-yl)phosphonic Acid Hydrochloride]",IC50 ratio (IC50 Examples/IC50 Tranexamic acid),[1]; [5],0.11
same,AUC,[2],30100 ng·h/mL
same,Cmax,[2],10100 ng/mL
same,clearance,[2],0.555 mL/min/kg
same,half-life,[2],4.15 h
"CCP(=O)(O)c1ccc2c(n1)CCNC2.Cl [Example 3, Ethyl (5,6,7,8-tetrahydro-1,6-naphthyridin-2-yl)-phosphinic Acid Hydrochloride]",IC50 ratio (IC50 Examples/IC50 Tranexamic acid),[1],0.86
"Cl.O=P(O)(CCc1ccccc1)c1ccc2c(n1)CCNC2 [Example 4, Phenylethyl (5,6,7,8-tetrahydro-1,6-naphthyridin-2-yl) Phosphinic Acid Hydrochloride]",IC50 ratio (IC50 Examples/IC50 Tranexamic acid),[1]; [5],0.36
"Cl.O=P(O)(O)c1ccc2c(n1)C(F)(F)CNC2 [Example 5, (8,8-difluoro-5,6,7,8-tetrahydro-1,6-naphthyridin-2-yl) Phosphonic Acid Hydrochloride]",IC50 ratio (IC50 Examples/IC50 Tranexamic acid),[1]; [5],1.3
"O=P(O)(O)c1ccc2c(n1)CCNC2 [Example 6, (5,6,7,8-tetrahydro-1,6-naphthyridin-2-yl) Phosphonic Acid Monohydrate]",Compound concentration for doubling CLT,[3],0.12 µM
same,CLT doubling,[3],37.06 min
same,IC50 ratio (IC50 Examples/IC50 Tranexamic acid),[1]; [5],0.09
"Cl.O=P(O)(O)c1ccc2c(n1)C(N1CCOCC1)CNC2 (centres unmarked) [Example 7, (8-morpholino-5,6,7,8-tetrahydro-1,6-naphthyridin-2-yl) Phosphonic Acid Hydrochloride]",IC50 ratio (IC50 Examples/IC50 Tranexamic acid),[1]; [5],0.3
"Cl.O=P(O)(O)c1ccc2c(n1)C(O)CNC2 (centres unmarked) [Example 8, (8-hydroxy-5,6,7,8-tetrahydro-1,6-naphthyridin-2-yl) Phosphonic Acid Hydrochloride]",IC50 ratio (IC50 Examples/IC50 Tranexamic acid),[1]; [5],0.2
same,AUC,[2],6660 ng·h/mL
same,Cmax,[2],5990 ng/mL
same,clearance,[2],2.44 mL/min/kg
same,half-life,[2],1.74 h
"Cl.O=P(O)(O)c1ccc2c(n1)C(OCCO)CNC2 (centres unmarked) [Example 9, (8-(2-hydroxyethoxy)-5,6,7,8-tetrahydro-1,6-naphthyridin-2-yl) Phosphonic Acid Hydrochloride]",IC50 ratio (IC50 Examples/IC50 Tranexamic acid),[1]; [5],0.25
"CC(C)CC1Cc2nc(P(=O)(O)O)ccc2CN1.Cl (centres unmarked) [Example 11, (7-isobutyl-5,6,7,8-tetrahydro-1,6-naphthyridin-2-yl) Phosphonic Acid Hydrochloride]",IC50 ratio (IC50 Examples/IC50 Tranexamic acid),[1]; [5],0.08
"CCCC1Cc2nc(P(=O)(O)O)ccc2CN1.Cl (centres unmarked) [Example 12, (7-propyl-5,6,7,8-tetrahydro-1,6-naphthyridin-2-yl) Phosphonic Acid Hydrochloride]",IC50 ratio (IC50 Examples/IC50 Tranexamic acid),[1]; [5],0.2
"Cl.O=P(O)(O)c1ccc2c(n1)CC(CCc1ccccc1)NC2 (centres unmarked) [Example 13, (7-phenylethyl-5,6,7,8-tetrahydro-1,6-naphthyridin-2-yl) Phosphonic Acid Hydrochloride]",IC50 ratio (IC50 Examples/IC50 Tranexamic acid),[1]; [5],0.2
CCOP(=O)(O)c1ccc2c(n1)CCNC2.Cl [Example 15],IC50 ratio (IC50 Examples/IC50 Tranexamic acid),[1]; [5],0.29
same,AUC,[2],2830 ng·h/mL
same,Cmax,[2],4890 ng/mL
same,clearance,[2],5.85 mL/min/kg
same,half-life,[2],0.77 h
COc1ccc(CCC2Cc3nc(P(=O)(O)O)ccc3CN2)cc1.Cl (centres unmarked) [Example 16],IC50 ratio (IC50 Examples/IC50 Tranexamic acid),[1]; [5],0.07
Cl.O=P(O)(c1ccccc1)c1ccc2c(n1)CCNC2 [Example 17],IC50 ratio (IC50 Examples/IC50 Tranexamic acid),[1]; [5],0.2
same,AUC,[2],2820 ng·h/mL
same,Cmax,[2],4090 ng/mL
same,clearance,[2],5.83 mL/min/kg
same,half-life,[2],1.53 h
CC(=O)OCOP(=O)(O)c1ccc2c(n1)CCNC2 [Example 18],IC50 ratio (IC50 Examples/IC50 Tranexamic acid),[1]; [5],0.23
CC(C)C(=O)OCOP(=O)(O)c1ccc2c(n1)CCNC2 [Example 19],IC50 ratio (IC50 Examples/IC50 Tranexamic acid),[1]; [5],0.26
Cl.O=P(O)(O)c1ccc2c(n1)C(N1CCSCC1)CNC2 (centres unmarked) [Example 20],IC50 ratio (IC50 Examples/IC50 Tranexamic acid),[1]; [5],0.21
Cl.O=P(O)(O)c1ccc2c(n1)C(N1CCS(=O)(=O)CC1)CNC2 (centres unmarked) [Example 21],IC50 ratio (IC50 Examples/IC50 Tranexamic acid),[1]; [5],0.25
Cl.O=P(O)(O)c1ccc2c(n1)CC(COCCCO)NC2 (centres unmarked) [Example 22],IC50 ratio (IC50 Examples/IC50 Tranexamic acid),[1]; [5],0.14
same,AUC,[2],5530 ng·h/mL
same,Cmax,[2],6790 ng/mL
same,clearance,[2],2.98 mL/min/kg
same,half-life,[2],3.58 h
CC(C)(C)CC1Cc2nc(P(=O)(O)O)ccc2CN1.Cl (centres unmarked) [Example 23],IC50 ratio (IC50 Examples/IC50 Tranexamic acid),[1]; [5],0.19
CC(C)C1Cc2nc(P(=O)(O)O)ccc2CN1.Cl (centres unmarked) [Example 24],IC50 ratio (IC50 Examples/IC50 Tranexamic acid),[1]; [5],0.14
Cl.O=P(O)(O)c1ccc2c(n1)CC(CCCc1ccccc1)NC2 (centres unmarked) [Example 25],IC50 ratio (IC50 Examples/IC50 Tranexamic acid),[1]; [5],0.21
CC(C)CCC1Cc2nc(P(=O)(O)O)ccc2CN1.Cl (centres unmarked) [Example 26],IC50 ratio (IC50 Examples/IC50 Tranexamic acid),[1]; [5],0.09
CC(C)(C)CCC1Cc2nc(P(=O)(O)O)ccc2CN1.Cl (centres unmarked) [Example 27],IC50 ratio (IC50 Examples/IC50 Tranexamic acid),[1]; [5],0.1
Cl.O=P(O)(O)c1ccc2c(n1)CC(CC1CCCCC1)NC2 (centres unmarked) [Example 28],IC50 ratio (IC50 Examples/IC50 Tranexamic acid),[1]; [5],0.07
Cl.O=P(O)(O)c1ccc2c(n1)CC(CCC1CCCCC1)NC2 (centres unmarked) [Example 29],IC50 ratio (IC50 Examples/IC50 Tranexamic acid),[1]; [5],0.09
Cl.O=P(O)(O)c1ccc2c(n1)CC(Cc1ccccc1)NC2 (centres unmarked) [Example 30],IC50 ratio (IC50 Examples/IC50 Tranexamic acid),[1]; [5],0.75
CC(C)CC1(CC(C)C)Cc2nc(P(=O)(O)O)ccc2CN1.Cl [Example 31],IC50 ratio (IC50 Examples/IC50 Tranexamic acid),[1]; [5],0.1
Cl.O=P(O)(O)c1ccc2c(n1)CC1(CCC1)NC2 [Example 32],IC50 ratio (IC50 Examples/IC50 Tranexamic acid),[1]; [5],0.7
Cl.O=P(O)(O)c1ccc2c(n1)CC1(CCCC1)NC2 [Example 33],IC50 ratio (IC50 Examples/IC50 Tranexamic acid),[1]; [5],0.22
Cl.O=P(O)(O)c1ccc2c(n1)CC1(CCCCC1)NC2 [Example 34],IC50 ratio (IC50 Examples/IC50 Tranexamic acid),[1]; [5],0.29
CCOC(=O)OCOP(=O)(O)c1ccc2c(n1)CCNC2 [Example 35],IC50 ratio (IC50 Examples/IC50 Tranexamic acid),[1]; [5],0.18
"NC[C@H]1CC[C@H](C(=O)O)CC1 [Tranexamic acid, trans-4-aminomethyl-cyclohexane-carboxylic acid, reference compound]",Compound concentration for doubling CLT,[3],1.78 µM
same,CLT doubling,[3],34.66 min
same,"anti-fibrinolytic activity, times that of EACA",[4],about 10 times
same,IC50,[1],4750 nM
same,AUC,[2],2820 ng·h/mL
same,Cmax,[2],4410 ng/mL
same,clearance,[2],5.78 mL/min/kg
same,half-life,[2],1.28 h
